What was measured:
Assay type in all cases: cell-based
[1] = Cell cytotoxicity 50 assay (CC50), HEK cells; settings: human
Method: (§1) Cell Cytotoxicity 50 Assay Protocol (CC50) Into a deep well block (DWB), the media for the appropriate cell line (450 μL/well) was added into wells 1-10. Into DWB well 2, 10 mM of drug solution (13.5 μL) was added, followed by an additional volume of the medium (225 μL). The well was pipetted up/down four times. A portion (225 μL) was transferred to well 3, and this process was repeated up to well 10. Using a multichannel pipet, a smaller portion (50 μL/well) was removed from all wells in the DWB and then dispensed on top of the cells in each corresponding row. After adding the drug, the plate was incubated at 37° C. for 72 h. Using a multi-channel pipet, pre-warmed cell titer glo reagent (Promega) (100 μL) was added into every well. After 5 minutes, the total luminescence was measured with a luminometer. CC50 was determined with GraphPad prism template.

[2] = test system: MBD3L2 RNA; experiment: RNA isolation and qPCR to determine MBD3L2 RNA levels in FSHD cells; settings: 48 hrs
Method: Protocol for RNA Isolation and qPCR to Determine MBD3L2 RNA Levels The protocol describes the process of isolating RNA from cultured cells, converting the RNA to complementary DNA (cDNA), and measuring target gene expression using a quantitative polymerase chain reaction (qPCR). The seed FSHD cells were dispensed into a six-well dish. One day after seeding, the DUX4 inhibitor (11 μM or 3.6 μM/well) was added to the cells. After another 48 hrs, the old media was removed from the cells. The cells were washed with 2 mL of warm phosphate buffered saline (PBS). The PBS was aspirated, and the cells were lysed in each well with 350 μL of RLT buffer+3.5 μL of beta-mercaptoethanol (BME). The lysates were added to fresh, RNAse-free, labeled Eppendorf tubes. The cells were then physically disrupted for […] at level 4 of the bead disrupter to ensure the release of the RNA. The RNA was collected according to standard procedures (i.e., Qiagen kit instructions) as discussed below. The RNA concentrations were standardized to […]. In a PCR tube, RNA (2 μg) in a new Eppendorf tube was diluted with RNase-free water to a 9.5 μL final volume of […] RNA. DNase was used to remove any DNA contamination. A DNase Master Mix was prepared from 1.5 μL/reaction DNase solution (1 unit/μL, Promega), 3 μL/reaction 5× RT buffer (i.e., 250 mM Tris-HCl (pH 8.3), 375 mM KCl, 15 mM MgCl2, and 500 μl 0.1 M DTT; Promega MMLV), and 1 μL/reaction RNase inhibitor solution (RNasin, 40 units/μL, Promega). The DNase Master Mix was added to the standardized RNA samples (5.5 μL/sample). The samples were mixed by agitation and briefly spun down by centrifuge. The samples were heated to 37° C. for 60 min, 80° C. for 5 min, and then cooled to 4° C. The samples were stored on ice until the addition of the next reagents. An RT Reaction Master Mix was prepared from 5 μL/reaction 5× RT buffer, 2 μL/reaction dNTP solution (2.5 mM in each nucleotide), 1 μL/reaction RNase inhibitor solution (RNasin, 40 units/μL, Promega), 1.6 μL/reaction M-MLV reverse transcriptase (200 units/μL, Promega), and 13.4 μL/reaction deionized, RNase-free water. The RT Reaction Master Mix was cooled on ice until use. A 50 μM solution of Random Primer 6 random hexanucleotides (2 μL) was added to each sample. The samples were mixed by agitation and briefly spun down by centrifuge. The samples were heated to 70° C. for 5 min and then cooled to 4° C. The RT Reaction Master Mix (23 μL) was added to each sample. The samples were mixed by agitation and briefly spun down by centrifuge. To convert the RNA to cDNA, the samples were heated to 42° C. for 60 min, 95° C. for 5 min, and then cooled to 4° C. The cDNA product mixture was diluted 5:1 with deionized water (40 μL+160 μL). The samples were run in triplicate, with a methyl-CpG-binding protein 3-like 2 (MBD3L2) target primer and a eukaryotic translation elongation factor 1-alpha (EEF1A) control primer. An qPCR Master Mix was prepared for each primer and stored on ice (4° C.) until use. The qPCR Master Mix included 10 μL/reaction SYBR Green Mix (2×) (ThermoFisher), 1 μL/reaction of the primer mix (i.e., the MBD3L2 PCR Primer mix or the EEF1A Primer mix), and 4 μL/reaction deionized, RNase-free water. To set up the qPCR plate, 15 μL of the appropriate qPCR Master Mix was added to the appropriate wells for each target/primer. After all the targets/primers have been added to the wells, 5 μL of the sample was added to the corresponding wells so that each well is 20 μL total. The plate was covered with a clear sheet. An qPCR run was set up (QuantStudio 5) with the following cycle: […]

[3] = Cell cytotoxicity 50 assay (CC50), MB200 cells, cell titer glo; settings: human
Method: as §1, with “(CC50) MB200 cells were grown until 80% confluent in F10 media supplemented with rhFGF basic (10 ng/ml), 15% fetal bovine serum, 1% penicillin streptomycin, 1% amphotericin B, and 1 μM dexamethasone. Adherent MB200 cells growing on 10 cm plate were then trypsinized with 1 ml of trypsin. Once the cells detached from the plate, F10 media (10 mL) was added, and the cells were strained through a 70 μm cell strainer. The cells were counted using a mixture of 10 μL cell suspension with 10 μL of trypan blue. Once the total number of cells were counted, a dilution of 200 k/mL was prepared, and the cells were seeded with 10 k cells/well in a 96-well plate in triplicate, making sure to avoid seeding cells in the edges of the plate to avoid edge effects. Using a multichannel pipet, the 200 k/mL cell dilution (50 μL/well) was added into wells B2-B11, C2-C11, and D2-D11 in triplicate.” for “(CC50)”

| Compound | CC50 at 72 h [1] [µM] | qPCR MBD3L2 Inhib at 11 µM [2] | CC50 at 72 h [3] [µM] |
| --- | --- | --- | --- |
| CC(=O)NCCCC(=O)Nc1ccc(-c2nc3cc(F)c(F)cc3s2)cc1 [Compound 84] | > 10 | YES | > 10 |
| CC(=O)NC(C)(C)/C=C/C(=O)Nc1ccc(-c2nc3ccccc3s2)cc1 [Compound 104] | > 10 | YES | > 10 |
| O=C(CCN1C(=O)CCC1=O)Nc1ccc(-c2nc3ccccc3s2)nc1 [Compound 37] | > 10 | YES | > 10 |
| CC(=O)NCCCC(=O)Nc1cnc(-c2nc3ccccc3s2)nc1 [Compound 59] | > 10 | YES | > 10 |
| CC(=O)NCCCC(=O)Nc1ccc(-c2nc3ccccc3s2)cc1 [Compound 5] | > 10 | YES | > 10 |
| O=C(CCCCc1cccnc1)Nc1ccc(-c2nc3ccccc3s2)cc1 [Compound 140] | > 10 | YES | > 10 |
| CC(=O)NCCCC(=O)N(C)c1ccc(-c2nc3ccccc3s2)cc1 [Compound 142] | > 10 | YES | > 10 |
| O=C(CCN1C(=O)CCC1=O)Nc1ccc(-c2nc3ccccc3s2)cc1 [Compound 1] | > 10 | YES | 1 to 10 |
| CC(=O)NCCC(=O)Nc1ccc(-c2nc3ccccc3s2)cc1 [Compound 38] | > 10 | YES | > 10 |
| CC(=O)NC1CC(C(=O)Nc2ccc(-c3nc4ccccc4s3)cc2)C1 (centres unmarked) [Compound 86] | > 10 | YES | > 10 |
| CC(=O)NCCCNC(=O)c1ccc(-c2nc3cc(F)ccc3s2)cc1 [Compound 74] | > 10 | YES | > 10 |
| O=C(CCc1cnn[nH]1)Nc1ccc(-c2nc3ccccc3s2)cc1 [Compound 40] | > 10 | YES | > 10 |
| O=C(CCc1cnco1)Nc1ccc(-c2nc3cc(F)ccc3s2)cc1 [Compound 65] | > 10 | YES | > 10 |
| O=C(CCCc1cccnc1)NC1CCC(c2nc3ccccc3s2)CC1 (centres unmarked) [Compound 61] | > 10 | YES | > 10 |
| O=C(CCCN1C(=O)CCC1=O)NCc1ccc(-c2nc3ccccc3s2)cc1 [Compound 93] | > 10 | YES | > 10 |
| CC(=O)NCCCCC(=O)Nc1ccc(-c2nc3ccccc3s2)cc1 [Compound 73] | > 10 | YES | > 10 |
| CC(=O)NCCCC(=O)Nc1ccc(-c2nc3ccccc3s2)c(C)c1 [Compound 129] | > 10 | YES | > 10 |

| Compound | CC50 at 72 h [1] [µM] | qPCR MBD3L2 Inhib at 11 µM [2] | CC50 at 72 h [3] [µM] |
| --- | --- | --- | --- |
| CC(=O)NCCCC(=O)Nc1ccc(-c2nc3ccccc3s2)cn1 [Compound 49] | > 10 | YES | > 10 |
| CC(=O)N[C@H]1CC[C@H](C(=O)Nc2nc3ccccc3s2)C1 [Compound 184] | > 10 | YES | > 10 |
| CC(=O)NCCC(=O)Nc1ccc(-c2nc3cc(F)ccc3s2)cc1 [Compound 44] | > 10 | YES | > 10 |
| O=C(CCCN1C(=O)CCC1=O)Nc1ccc(-c2nc3ccccc3s2)cc1 [Compound 41] | > 10 | YES | > 10 |
| O=C(CCCc1cccnc1)Nc1ccc(Cc2nc3ccccc3s2)cc1 [Compound 60] | > 10 | YES | > 10 |
| O=C(CCc1cncnc1)Nc1ccc(-c2nc3ccccc3s2)cc1 [Compound 55] | > 10 | YES | > 10 |
| O=C(CCCc1cnco1)Nc1ccc(-c2nc3cc(F)ccc3s2)cc1 [Compound 64] | 1 to 10 | YES | > 10 |
| CC(=O)NCCCC(=O)Nc1ccc(-c2nc3ccccc3s2)o1 [Compound 76] | > 10 | YES | > 10 |
| CC(=O)NCCCC(=O)Nc1ccc(CCc2nc3ccccc3s2)cc1 [Compound 174] | > 10 | YES | > 10 |
| CC(=O)NC1CCC(C(=O)Nc2ccc(-c3nc4ccccc4s3)cc2)C1 (centres unmarked) [Compound 85] | > 10 | YES | > 10 |
| CC(=O)NCCCC(=O)NCc1ccc(-c2nc3ccccc3s2)cc1 [Compound 105] | > 10 | YES | > 10 |
| CC(=O)NCCNC(=O)Cc1ccc(-c2nc3cc(F)ccc3s2)cc1 [Compound 111] | > 10 | YES | > 10 |
| O=C(CCCN1C(=O)CCC1=O)NC1CC=C(c2nc3ccccc3s2)CC1 (centres unmarked) [Compound 46] | > 10 | YES | > 10 |
| CN(C(=O)CCN1C(=O)CCC1=O)c1ccc(-c2nc3ccccc3s2)cc1 [Compound 34] | > 10 | YES | > 10 |
| CN(C(=O)CCCN1C(=O)CCC1=O)c1ccc(-c2nc3ccccc3s2)cc1 [Compound 141] | 1 to 10 | YES | > 10 |
| O=C(CCc1cocn1)Nc1ccc(-c2nc3ccccc3s2)cc1 [Compound 57] | > 10 | – | > 10 |

From patent US20250313555A1, “2-SUBSTITUTED THIAZOLE AND BENZOTHIAZOLE COMPOSITIONS AND METHODS AS DUX4 INHIBITORS” (ALTAY THERAPEUTICS, INC., priority 2022, published 2025)
